Values joined by “and” are separate entries in the source; they are usually repeats but may differ in a detail not shown here. Equal entries are not always repeated.
Details: Crystal, Calculated from knudsen effusion weight loss

O=[N+]([O-])c1cc(Br)ccc1Br [1,4-dibromo-2-nitrobenzene]
Details	vapor or sublimation pressure
302.14 K	9.9e-05 kPa and 9.7e-05 kPa
304.16 K	0.000121 kPa and 0.000125 kPa and 0.000123 kPa
306.15 K	0.000167 kPa and 0.000166 kPa and 0.000163 kPa
308.15 K	0.000204 kPa and 0.000205 kPa and 0.000203 kPa
310.14 K	0.00026 kPa and 0.000264 kPa and 0.000261 kPa
312.14 K	0.000327 kPa and 0.000332 kPa and 0.000329 kPa
314.14 K	0.000418 kPa and 0.000419 kPa
316.14 K	0.000522 kPa and 0.000527 kPa and 0.000524 kPa
318.15 K	0.000666 kPa and 0.000675 kPa and 0.000673 kPa
320.15 K	0.000884 kPa and 0.000858 kPa and 0.000838 kPa
322.14 K	0.001072 kPa and 0.001068 kPa and 0.001063 kPa
